# Laboratory results reported in patent US20050272748A1, “2-Mercapto-substituted triazolopyrimidines, methods for the production thereof, the use of the same for controlling patogenic fungi, and agents containing said compounds” (BASF Aktiengesellschaft, priority 2002, published 2005).
# Tested on: Botrytis cinerea
# Test: Activity against gray mold on bell pepper leaves, protective application
# Assay type: in vivo
# Details: 250 ppm active compound; bell pepper seedlings sprayed to runoff, inoculated next day, evaluated after 5 days; untreated plants 45% infected
# Protocol: The active compounds were prepared as a 10% strength emulsion in a mixture of 70% by weight of cyclohexanone, 20% by weight of Nekanil®) LN (Lutensol®) AP6, wetting agent having emulsifying and dispersing action based on ethoxylated alkylphenols) and 10% by weight of Wettol® EM (nonionic emulsifier based on ethoxylated castor oil) and diluted with water to the desired concentration. Use example: Activity against gray mold, caused by Botiytis cinerea, on bell pepper leaves, protective application Bell pepper seedlings of the cultivar “Neusiedler Ideal Elite” were, after 4 to 5 leaves were well-developed, sprayed to runoff-point with an aqueous suspension having the concentration of active compound stated below. The next day, the treated plants were inoculated with a spore suspension of Botrytis cinerea, which contained 1.7×10^6 spores/ml in an aqueous 2% strength biomalt solution. […] After 5 days, the extent of the fungal infection on the leaves could be determined visually in %. […] The efficacy (E) is calculated as follows, using Abbot's formula: E=(1−α/β)·100 • α corresponds to the fungal infection of the treated plants in % and • β corresponds to the fungal infection of the untreated (control) plants in % At an efficacy of 0, the degree of infection of the treated plants corresponds to that of the untreated control plants; at an efficacy of 100, the treated plants were not infected.
smiles,measurement,value
"CC1CCN(c2c(-c3c(F)cc(F)cc3F)c(Cl)nc3nc(S)nn23)CC1 [Example 9, 5-chloro-7-(4-methylpiperidin-1-yl)-2-mercapto-6-(2,4,6-trifluorophenyl)-[1,2,4]-triazolo[1,5-a]pyrimidine]",efficacy (Abbot's formula),56%
